Data from US4268630A, “Microbiological production of ketones from C3 -C6 alkanes” (priority 1979, dated 1981).

Experiments:
[1] = test system: Methylobacterium organophilum XX (ATCC 27886); assay: Oxidation of sec-alcohols to ketones by resting cell suspension; format: cell-based
Description: (§1) The pH of the nutrient medium was adjusted to 7.0 by the addition of acid or base and 50 ml. samples of the nutrient medium were charged into a plurality of 300 ml. shaker flasks. The shaker flasks were inoculated with an inoculating loop of cells from an agar plate containing homogeneous colonies of the microorganisms on the plate (the purity of the isolates was confirmed by microscopic examination). The isolates had been maintained on methanol (0.4% V/V) agar plates or on agar plates under an atmosphere of methane and air having a 1:1 V/V gas ratio which had been transferred every two weeks. For growth on methanol, the medium was supplemented with 0.4% methanol. For growth on methane, the gaseous phase of the inoculated flasks was replaced with a gas mixture comprised on methane and air having a ratio of 1:1 on a V/V basis. The inoculated flasks were sealed air-tight and were incubated on a rotary shaker of orbital radius 2.5 cm. at 250 rpm and at 30° C. for two days until turbidity in the medium had developed. The cells were harvested by centrifugation at 10,000×g. at 4° C. for 30 minutes. The cell pellet was washed twice with a 0.05 M phosphate buffer at a pH of 7.0 (containing 0.02 M MgCl2). The washed cells were then suspended in a 0.05 M phosphate buffer at pH 7.0.
(§2) A 0.5 ml. sample of each washed cell suspension (2 mg. cells) was put into 10 ml. vials at 4° C. which were sealed with a rubber cap. The gaseous phase of the vials was removed with vacuum and then was replaced with a gas mixture of the substrate reactant (i.e., alkane or secondary alcohol) and oxygen at a 1:1 V/V ratio. (In the case of a liquid substrate, i.e., secondary alcohol, 10 μl of the substrate was put in the 10 ml. vials). […] Samples of product (1-3 μl) were withdrawn periodically with a microsyringe and the products were analyzed by gas chromatography (ionization flame detector column).
(§3) The procedure in Example 1 was repeated wherein a plurality of the methane-utilizing methylotrophic microorganisms were each grown aerobically in a nutrient medium containing methane as the alcohol dehydrogenase enzyme inducer and as the major carbon and energy source for growth. The cells were harvested and washed as described in Example 1. The resting microbial cells of the induced methane-grown methane-utilizing methylotrophic microorganisms were then contacted with C3 -C6 secondary alcohols in a buffered solution by the procedure of Example 1.
(§4) In this example, the procedure in Example 1 was repeated except that a plurality of methane-utilizing methylotrophic microorganisms were each aerobically grown in a methanol-containing nutrient medium instead of a methane-containing medium. The nutrients in the medium were the same as indicated in Example 1 except that 0.4% V/V methanol was used as the alcohol dehydrogenase inducer and major source of carbon and energy for growth. Following growth, the cells were harvested and washed as described in Example 1. The resting cells of the induced methanol-grown methylotrophic microorganisms were then contacted with secondary alcohols in a buffered solution by the procedure described in Example 1.
(§5) The procedure in Example 1 was repeated except that the methylotrophic microorganisms were each aerobically grown in an alcohol dehydrogenase-inducing growth medium containing methylamine or methyl formate as the alcohol dehydrogenase enzyme inducer and growth substrate instead of methane. The nutrients in the medium were the same as indicated in Example 1 except that 0.4% V/V of the alcohol dehydrogenase-inducer growth substrate was used as the major carbon and energy source. The cells were harvested and washed as described in Example 1. The resting microbial cells were then contacted with C3 -C6 secondary alcohols in a buffered solution by the conversion procedure of Example 1.

[2] = test system: Methylosinus trichosporium OB3b (NRRL B-11,196); assay: as above; format: cell-based
Description: as §1, §2, §3, §4, §5

[3] = test system: Methylobacter capsulatus Y (NRRL B-11,201); assay: as above; format: cell-based
Description: as §1, §2, §3, §4

[4] = test system: Methylococcus capsulatus, Texas (ATCC 19069); assay: as above; format: cell-based
Description: as §1, §2, §3, §4

[5] = test system: Methylocystis parvus OBBP (NRRL B-11,198); assay: as above; format: cell-based
Description: as §1, §2, §3, §4

[6] = test system: Methylomonas methanica S1 (NRRL B-11,199); assay: as above; format: cell-based
Description: as §1, §2, §3, §4

[7] = test system: Methanomonas methylovora ATCC 21852; assay: as above; format: cell-based
Description: as §1, §2
(§6) The procedure in Example 1 was repeated except that a plurality of methanol-utilizing methylotrophic microorganisms were each aerobically grown in a methanol-containing nutrient medium instead of a methane-containing medium. The nutrients in the medium were the same as indicated in Example 1 except that 0.4% V/V methanol was used as the alcohol dehydrogenase inducer and as the major carbon and energy source for growth. The cells were harvested and washed as described in Example 1. The resting microbial cells of the induced methanol-grown methanol-utilizing methylotrophic microorganisms were then contacted with C3 -C6 secondary alcohols in a buffered solution by the procedure of Example 1.
as §5

[8] = test system: Pseudomonas sp. ATCC 21438; assay: as above; format: cell-based
Description: as §1, §2, §6, §5

[9] = test system: Candida utilis ATCC 26387; assay: Oxidation of sec-alcohols to ketones by cell suspensions of yeasts; format: cell-based
[10] = test system: Hansenula polymorpha ATCC 26012; assay: as above; format: cell-based
[11] = test system: cell extracts of Candida utilis ATCC 26,387; assay: NAD+-dependent oxidation of secondary alcohols by cell extracts of yeasts; format: biochemical; conditions: cell extracts, grown on methanol, NAD+; gas chromatography
[12] = test system: cell extracts of Pichia sp. NRRL Y-11,328; assay: as above; format: biochemical; conditions: grown on methanol, gas chromatography
[13] = test system: cell extracts of Kloeckera sp. strain A2 NRRL Y-11,420; assay: as above; format: biochemical; conditions: cell extracts, grown on methanol, NAD+; gas chromatography
[14] = test system: cell suspensions of C1-utilizers; assay: Production of 2-butanone from 2-butanol / sec-alcohol oxidation by cell suspensions of the strains tested; format: cell-based; conditions: cell suspensions of C1-utilizers
Source text: The substrate specificity for the oxidation of C3 -C6 secondary alcohols by the strains of C1 -utilizers was studied.

[15] = test system: secondary alcohol dehydrogenase; assay: Activity of purified yeast-derived secondary alcohol dehydrogenase; format: biochemical, Pichia sp. NRRL Y-11,328; conditions: spectrophotometric

| SMILES | Conversion Rates, sec-alcohol to methyl ketone ([1]; cells grown on methanol) [μmoles/hr/mg protein] | Conversion Rates, sec-alcohol to methyl ketone ([1]; methyl formate-grown) [μmoles/hr/mg protein] | Conversion Rates, sec-alcohol to methyl ketone ([1]; resting cells grown on methane) [μmoles/hr/mg protein] | Conversion Rates, sec-alcohol to methyl ketone ([2]; cells grown on methanol) [μmoles/hr/mg protein] | Conversion Rates, sec-alcohol to methyl ketone ([2]; methyl formate-grown) [μmoles/hr/mg protein] | Conversion Rates, sec-alcohol to methyl ketone ([2]; resting cells grown on methane) [μmoles/hr/mg protein] | Conversion Rates, sec-alcohol to methyl ketone ([3]; cells grown on methanol) [μmoles/hr/mg protein] | Conversion Rates, sec-alcohol to methyl ketone ([3]; resting cells grown on methane) [μmoles/hr/mg protein] | Conversion Rates, sec-alcohol to methyl ketone ([4]; cells grown on methanol) [μmoles/hr/mg protein] | Conversion Rates, sec-alcohol to methyl ketone ([4]; resting cells grown on methane) [μmoles/hr/mg protein] | Conversion Rates, sec-alcohol to methyl ketone ([5]; cells grown on methanol) [μmoles/hr/mg protein] | Conversion Rates, sec-alcohol to methyl ketone ([5]; resting cells grown on methane) [μmoles/hr/mg protein] | Conversion Rates, sec-alcohol to methyl ketone ([6]; cells grown on methanol) [μmoles/hr/mg protein] | Conversion Rates, sec-alcohol to methyl ketone ([6]; resting cells grown on methane) [μmoles/hr/mg protein] | Conversion Rates, sec-alcohol to methyl ketone ([7]; methanol-grown, obligate) [μmoles/hr/mg protein] | Conversion Rates, sec-alcohol to methyl ketone ([7]; methyl formate-grown) [μmoles/hr/mg protein] | Conversion Rates, sec-alcohol to methyl ketone ([7]; methylamine-grown) [μmoles/hr/mg protein] | Conversion Rates, sec-alcohol to methyl ketone ([8]; methanol-grown, facultative) [μmoles/hr/mg protein] | Conversion Rates, sec-alcohol to methyl ketone ([8]; methyl formate-grown) [μmoles/hr/mg protein] | Conversion Rates, sec-alcohol to methyl ketone ([8]; methylamine-grown) [μmoles/hr/mg protein] | other results |
| --- | --- | --- | --- | --- | --- | --- | --- | --- | --- | --- | --- | --- | --- | --- | --- | --- | --- | --- | --- | --- | --- |
| CCCC(C)O (stereo not shown) [2-Pentanol, 2-pentanol] | 0.9 | 1.0 | 0.82 | 2.9 | 1.5 | 2.7 | 0.60 | 0.5 | 3.5 | 2.5 | 0.82 | 0.80 | 0.45 | 0.25 | 2.1 | 1.5 | 1.0 | 2.7 | 2.0 | 0.82 | Conversion Rate, sec-alcohol to ketone ([9]; growth substrate Ethanol): 1.0 μmoles/hr/mg of protein; Conversion Rate, sec-alcohol to ketone ([9]; growth substrate Methanol): 1.5 μmoles/hr/mg of protein; Conversion Rate, sec-alcohol to ketone ([9]; growth substrate Methylamine): 1.2 μmoles/hr/mg of protein; Conversion Rate, sec-alcohol to ketone ([9]; growth substrate Methylformate): 1.3 μmoles/hr/mg of protein; Conversion Rate, sec-alcohol to ketone ([9]; growth substrate Propylamine): 0.9 μmoles/hr/mg of protein; Conversion Rate, sec-alcohol to ketone ([10]; growth substrate Ethanol): 1.1 μmoles/hr/mg of protein; Conversion Rate, sec-alcohol to ketone ([10]; growth substrate Methanol): 1.4 μmoles/hr/mg of protein; Conversion Rate, sec-alcohol to ketone ([10]; growth substrate Methylamine): 1.2 μmoles/hr/mg of protein; Conversion Rate, sec-alcohol to ketone ([10]; growth substrate Methylformate): 1.3 μmoles/hr/mg of protein; Conversion Rate, sec-alcohol to ketone ([10]; growth substrate Propylamine): 0.82 μmoles/hr/mg of protein; Conversion Rate, secondary alcohol to methylketone [11]: 0.82 μmoles/hr/mg Protein; Conversion Rate, secondary alcohol to methylketone [12]: 1.2 μmoles/hr/mg Protein; Conversion Rate, secondary alcohol to methylketone [13]: 1.2 μmoles/hr/mg Protein; substrate specificity: rate of oxidation of secondary alcohols (in words) [14]: oxidized at a much slower rate; substrate specificity of purified yeast secondary alcohol dehydrogenase (in words) [15]: catalyzed the oxidation |
| CC(C)O [2-Propanol, 2-propanol] | 0.70 | 0.48 | 0.5 | 0.30 | 0.95 | 0.25 | 0.52 | 0.15 | 0.75 | 0.08 | 0.25 | 0.32 | 0.35 | 0.40 | 0.28 | 0.62 | 0.82 | 0.45 | 0.52 | 1.0 | Conversion Rate, sec-alcohol to ketone ([9]; growth substrate Ethanol): 5.2 μmoles/hr/mg of protein; Conversion Rate, sec-alcohol to ketone ([9]; growth substrate Methanol): 6.2 μmoles/hr/mg of protein; Conversion Rate, sec-alcohol to ketone ([9]; growth substrate Methylamine): 5.0 μmoles/hr/mg of protein; Conversion Rate, sec-alcohol to ketone ([9]; growth substrate Methylformate): 5.6 μmoles/hr/mg of protein; Conversion Rate, sec-alcohol to ketone ([9]; growth substrate Propylamine): 4.2 μmoles/hr/mg of protein; Conversion Rate, sec-alcohol to ketone ([10]; growth substrate Ethanol): 5.0 μmoles/hr/mg of protein; Conversion Rate, sec-alcohol to ketone ([10]; growth substrate Methanol): 5.9 μmoles/hr/mg of protein; Conversion Rate, sec-alcohol to ketone ([10]; growth substrate Methylamine): 5.2 μmoles/hr/mg of protein; Conversion Rate, sec-alcohol to ketone ([10]; growth substrate Methylformate): 5.6 μmoles/hr/mg of protein; Conversion Rate, sec-alcohol to ketone ([10]; growth substrate Propylamine): 4.1 μmoles/hr/mg of protein; Conversion Rate, secondary alcohol to methylketone [11]: 4.5 μmoles/hr/mg Protein; Conversion Rate, secondary alcohol to methylketone [12]: 5.5 μmoles/hr/mg Protein; Conversion Rate, secondary alcohol to methylketone [13]: 4.8 μmoles/hr/mg Protein; substrate specificity: rate of oxidation of secondary alcohols (in words) [14]: oxidized at higher rates; substrate specificity of purified yeast secondary alcohol dehydrogenase (in words) [15]: catalyzed the oxidation |
